The text below walks through data of patent US12697325B2 (TENNOR THERAPEUTICS (SUZHOU) LIMITED, priority 2021, dated 2026).

The conditions of data set [1]: cited from earlier work.
For data set [2] the following is noted: 0.5 g, q8 h via infusion for 2 h; cited from earlier work.
For data set [3], the system named is clinical strains of Acinetobacter baumannii. Kind of data set: Minimum inhibitory concentration (CLSI M07), Example 1, clinical strains. It counts as cell-based. Particulars: combination MIC = sum of the concentrations of the two compounds. The protocol:
The minimum inhibitory concentration (MIC) was determined in accordance with the requirements of the Clinical and Laboratory Standards Institute (CLSI) M07 (for aerobic bacteria).
3.1 The compounds were diluted with water up to 100 times of the highest concentration tested.
The dilution steps are as follows: first dilute the compounds or antibiotics to 100 times of the highest final concentration tested, and then:
A 50 μL of sterile water and 50 μL of avibactam sodium mother liquid were added into the A row of the second 96-well plate, and 50 μL of water was added into each of the remaining wells. A 50 μL of liquid was pipetted from the A row and added into the B row; after being pipetted up and down to even, 50 μL of the solution was pipetted and added to the C row, and diluted in a 2-fold gradient in turn for a total of 6 times and then, 50 μL was removed from each well of the G row to obtain the compound solution diluted to a 2-fold gradient and then 4 μL was transferred to a 96-well test plate.
Aerobic bacteria: the strains were inoculated on MHA one day in advance and incubated overnight at 37° C. On the day of the assay, 5-6 single colonies were picked and suspended evenly in saline, and the bacterial concentration was adjusted to the turbidity of 0.5 McFarland standard (concentration is about 1×10^8 CFU/mL). The bacterial suspension was diluted 200 times with the corresponding liquid culture medium (Table 1), i.e., at a bacterial concentration of ~5×10^5 CFU/ml, then 192 μL was transferred to a 96-well round bottom plate to obtain the test plate. Then, the 96-well round bottom plate obtained above was placed into an incubator at 37° C. and 85% humidity to incubate for 20 h.

For the molecule `NC(=O)[C@@H]1CC[C@@H]2CN1C(=O)N2OS(=O)(=O)O` [Avibactam, [(2S,5R)-2-carbamoyl-7-oxo-1,6-diazabicyclo [3.2.1]oct-6-yl] bisulfate], the Protein binding in data set [1] was roughly 8%. Besides, in data set [2], the “Part of the dosing interval with plasma concentration above 4 μg/mL” value was 50% and the “Part of the dosing interval with plasma concentration above 8 μg/mL” value was 30%.
As a reminder, the MIC50 is an inhibitory concentration at the 50% level, which refers to growth in some studies and to a panel of isolates in others. A word on the MIC90: it is an inhibitory concentration at the 90% level, which refers to growth in some studies and to a panel of isolates in others. For the molecule `CC1(C)[C@H](C(=O)[O][Na+])N2C(=O)C[C@H]2S1(=O)=O` [Sulbactam sodium, sulbactam sodium], in data set [3] (Acinetobacter baumannii, read-out: MIC50), the MIC50 worked out at 32 µg/mL. Moreover, the MIC90 in data set [3] (Acinetobacter baumannii, read-out: MIC90) was determined as 32 µg/mL. For the same molecule, the MIC range in data set [3] lay in the range of 8 to 32 µg/mL.
